Like-named read-outs stand apart in the source and are kept apart here.
Experiments:
intraocular pressure = test: IOP response in lasered (hypertensive) eyes of conscious cynomolgus monkeys; assay type: in vivo, cynomolgus monkey
Procedure: IOP Response in Lasered (Hypertensive) Eyes of Conscious Cynomolgus Monkeys
Intraocular pressure (IOP) was determined with an Alcon Pneumatonometer after light corneal anesthesia with 0.1% proparacaine. Eyes were washed with saline after each measurement. After a baseline IOP measurement, test compound was instilled in one 30 μL aliquot to the right eyes only of nine cynomolgus monkeys. Vehicle was instilled in the right eyes of six additional animals. Subsequent IOP measurements were taken at 1, 3, and 6 hours.

[1] = molecular target: T1, human cloned 5-HT1A receptors (Homo sapiens, UniProt P08908); test: 5-HT1A receptor binding assay ([3H]8-OH-DPAT)
T1 construct: purchased NEN (manufactured by Biosignal, Inc., Montreal, Canada); host or cells: CHO cells (membranes)
T1 sequence (P08908 1-422): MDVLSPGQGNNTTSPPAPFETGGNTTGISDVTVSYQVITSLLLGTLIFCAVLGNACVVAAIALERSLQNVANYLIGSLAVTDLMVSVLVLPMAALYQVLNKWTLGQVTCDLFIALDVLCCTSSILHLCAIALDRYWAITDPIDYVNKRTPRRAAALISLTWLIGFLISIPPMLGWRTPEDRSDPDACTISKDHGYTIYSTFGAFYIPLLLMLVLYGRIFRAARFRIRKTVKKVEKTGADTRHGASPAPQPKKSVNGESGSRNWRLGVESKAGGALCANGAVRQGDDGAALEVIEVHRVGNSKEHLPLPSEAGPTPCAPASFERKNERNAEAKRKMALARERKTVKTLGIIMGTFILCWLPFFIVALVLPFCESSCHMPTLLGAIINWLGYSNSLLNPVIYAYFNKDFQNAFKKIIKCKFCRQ
Procedure: 5-HT1A Receptor Binding Assay
5-HT1A binding studies were performed with human cloned receptors expressed in Chinese hamster ovary (CHO) cells using (^3H)8-OH DPAT as the ligand. Membranes from Chinese hamster ovary cells (CHO) expressing cloned 5-HT1A receptors (manufactured for NEN by Biosignal, Inc., Montreal, Canada) were homogenized in approximately 40 volumes of 50 mM Tris pH 7.4 for 5 sec. Drug dilutions were made using a Beckman Biomek 2000 robot (Beckman Instruments, Fullerton, Calif.). Incubations were conducted with membrane prep, test compounds, and 0.25 nM [^3H]8-OH-DPAT (NEN, Boston, Mass.) in the same buffer at 27° C. for 1 h. Assays were terminated by rapid vacuum filtration over Whatman GF/B glass fiber filters pre-soaked in 0.3% polyethyleneimine. Bound radioactivity was measured using liquid scintillation spectrometry. Data were analyzed using non-linear curve fitting programs (Sharif et al., J. Pharmac. Pharmacol. 51: 685-694, 1999).
Ligand binding studies can also be run using membrane preparations from calf and rat brain (local source) and human cortex membranes. Specific brain regions were dissected out, homogenized in 10 volumes of 0.32 M sucrose and centrifuged for 10 min at 700×g. The resulting supernatant was centrifuged at 43,500×g for 10 min and the pellet re-suspended in 50 mM Tris-HCl (pH 7.7, 25° C.) using a 10 sec polytron treatment. Aliquots were stored at −140° C. To remove endogenous serotonin, the preps were incubated at 37° C. for 10 min prior to the experiment. Assay incubations were terminated by rapid filtration over Whatman GF/C filters using a Brandel cell harvester. Ki values were calculated using the Cheng-Prusoff equation (De Vry et al., J. Pharm. Exper. Ther. 284:1082-1094, 1998.)

[2] = test system: photooxidative induced retinopathy; test: Neuroprotective effects in the rat photooxidative induced retinopathy model (ERG); assay type: in vivo, Sprague Dawley rat; settings: for A-wave Amplitude Mean / B-wave Amplitude Mean: ERG after five day recovery
Procedure: Neuroprotective Effects in the Rat Photooxidative Induced Retinopathy Model
Male Sprague Dawley rats were randomly assigned to vehicle treatment (saline) or drug treatment (dissolved in saline) experimental groups. α-methyl-5-hydroxytryptamine (1, 5, and 10 mg/kg) or vehicle was administered by subcutaneous (SC) injection at 48, 24, and 0 hours prior to light exposure and once 24 hours after a 6-hour light exposure to spectrally filtered blue light (˜220 fc). Control rats were housed in their home cage under normal cyclic light exposure. Rats were single housed in clear polycarbonate cages during this light exposure.
The electroretinogram (ERG) was recorded after a five day recovery period from dark-adapted anesthetized rats (Ketamine-HCl, 75 mg/Kg; Xylazine, 6 mg/Kg). The eye's electrical response to a flash of light was elicited by viewing a ganzfeld. ERGs to a series of light flashes increasing in intensity were digitized to analyze temporal characteristics of the waveform and determine the response voltage-log intensity (VlogI) relationship. Changes in the ERG a-wave are associated with photoreceptor and retinal pigment epithelium damage while damage to the inner retina is reflected in changes in the ERG b-wave.

[3] = 300 μg topical ocular, 1 hour after dose
[4] = 300 μg topical ocular, 3 hours after dose
[5] = 300 μg topical ocular, 6 hours after dose

Row | Compound | Percent IOP Reduction (intraocular pressure; [3]) | Percent IOP Reduction (intraocular pressure; [4]) | Percent IOP Reduction (intraocular pressure; [5]) | IC50 ([1]; [3H]8-OH-DPAT, CHO cell membranes, read-out: IC50, nM (SEM) 5-HT1A receptor binding) | Percent IOP Reduction (intraocular pressure; 250 μg topical ocular, 1 hour after dose) | Percent IOP Reduction (intraocular pressure; 250 μg topical ocular, 3 hours after dose) | Percent IOP Reduction (intraocular pressure; 250 μg topical ocular, 6 hours after dose) | IC50 [1] | Maximum a- and b-wave response amplitudes compared with vehicle dosed rats ([2]; 1.0 mg/kg) | Maximum a- and b-wave response amplitudes, % of control animals ([2]; 1.0 mg/kg) | A-wave Amplitude Mean ([2]; 1.0 mg/kg SC) | B-wave Amplitude Mean ([2]; 1.0 mg/kg SC) | A-wave Amplitude Mean ([2]; 5.0 mg/kg SC) | B-wave Amplitude Mean ([2]; 5.0 mg/kg SC) | A-wave Amplitude Mean ([2]; 10.0 mg/kg SC) | B-wave Amplitude Mean ([2]; 10.0 mg/kg SC) | Protection of retina function against photo-oxidative induced retinopathy ([2]; 1, 5 and 10 mg/kg SC) | Maximum a- and b-wave response amplitudes compared with vehicle dosed rats ([2]; 5 and 10 mg/kg) | Maximum a-wave response amplitude, % of control animals ([2]; 5 and 10 mg/kg, first of 'respectively' values) | Maximum b-wave response amplitude, % of control animals ([2]; 5 and 10 mg/kg, second of 'respectively' values)
1 | CC(N)Cn1ccc2ccc(O)cc21.O=C(O)/C=C/C(=O)O (stereo not drawn) [1-(2-aminopropyl) 6-hydroxyindole fumarate] | 19.1% | 30.1% | 27% | 111 nM |  |  |  |  |  |  |  |  |  |  |  |  |  |  |  | 
2 | CC(N)Cc1c[nH]c2ccc(O)cc12.O=C(O)/C=C\C(=O)O (stereo not drawn) [α-Methyl 5-hydroxytryptamine maleate, 3-(2-aminopropyl)-1H-indol-5-ol] |  |  |  |  | 14.2% | 25.8% | 30.8% | 22.5 nM | not significantly different than vehicle dosed rats | approximately 30% | 237.8 μV | 555 μV | 471.93 μV | 1123 μV | 477.7 μV | 1126 μV | dose-dependent protection of outer and inner retina function | significantly higher than responses measured in vehicle dosed rats | approximately 58% | ~62%
3 | COc1ccc2[nH]cc(CC(C)N)c2c1.O=C(O)/C=C/C(=O)O (stereo not drawn) [α-Methyl 5-methoxytryptamine fumarate] | 14% | 23.5% | 22.6% |  |  |  |  | 26.5 nM |  |  |  |  |  |  |  |  |  |  |  | 

Source: patent US20030114512A1, “Compounds with 5-ht2 and 5-ht1a agonist activity for treating glaucoma” (priority 2002, published 2003)
